# Results from patent US20200352934A1, “LOW-TEMPERATURE STABLE OPIOID ANTAGONIST SOLUTIONS” (priority 2017, published 2020).
# Read-outs that look alike come from different tables or passages of the source.
# Details: storage at 4° C.
# [1] = per 100 mL: EDTA-Na2 0 mg, PG 5% w/v
# [2] = per 100 mL: EDTA-Na2 0 mg, PG 10% w/v
# [3] = per 100 mL: EDTA-Na2 0 mg, PG 20% w/v
# [4] = per 100 mL: EDTA-Na2 100 mg, PG 5% w/v
# [5] = per 100 mL: EDTA-Na2 100 mg, PG 10% w/v
# [6] = per 100 mL: EDTA-Na2 100 mg, PG 20% w/v
smiles,measurement,setting,value
C=CCN1CC[C@]23c4c5ccc(O)c4O[C@H]2C(=O)CC[C@@]3(O)[C@H]1C5 [Naloxone],Observed naloxone precipitation 24 days,[1],No
same,Observed naloxone precipitation 24 days,[2],No
same,Observed naloxone precipitation 24 days,[3],No
same,Observed naloxone precipitation 24 days,[4],No
same,Observed naloxone precipitation 24 days,[5],No
same,Observed naloxone precipitation 24 days,[6],No and Slight
same,Observed naloxone precipitation 35 days,[1],No
same,Observed naloxone precipitation 35 days,[2],No
same,Observed naloxone precipitation 35 days,[3],No
same,Observed naloxone precipitation 35 days,[4],No
same,Observed naloxone precipitation 35 days,[5],No
same,Observed naloxone precipitation 35 days,[6],No and Yes
same,Observed naloxone precipitation 53 days,[1],No
same,Observed naloxone precipitation 53 days,[2],No
same,Observed naloxone precipitation 53 days,[3],No
same,Observed naloxone precipitation 53 days,[4],No
same,Observed naloxone precipitation 53 days,[5],No and Slight
same,Observed naloxone precipitation 53 days,[6],No and Yes
